Assay results from PMC7481290, “Halogenation as a tool to tune antimicrobial activity of peptoids” (Scientific Reports, 2020).
≈ marks a conversion by molar mass, not a printed value. Non-standard residues stand in square brackets, D forms with d. Residues, ends and D or L forms follow the SMILES beside them. Gly(Nα-4-Cl-benzyl) = O=C(O)CNCc1ccc(Cl)cc1; N(4-Br-benzyl)Gly = O=C(O)CNCc1ccc(Br)cc1; N(4-F-Bzl)Gly = O=C(O)CNCc1ccc(F)cc1; NBzl(4-I)Gly = O=C(O)CNCc1ccc(I)cc1; Nphe = O=C(O)CNCc1ccccc1; Nlys = NCCCCNCC(=O)O

What was measured:
[1] = tested on: Methicillin-resistant S. epidermidis ATCC 51625; assay type: cell-based, Staphylococcus epidermidis; conditions: ATCC 51625, 18 h
Procedure: (§1) Bacterial growth inhibition was determined by using broth microdilution according to the Clinical Laboratory Standards Institute[43]. The antibacterial activity of peptoids was tested against S. aureus ATCC 25923, ATCC29213, and methicillin resistant S. aureus USA 300, methicillin resistant S. epidermidis ATCC 51625, a biofilm producing methicillin resistant S. epidermidis ET-024[44], P. aeruginosa Pa01 (H103), and E. coli ATCC 25922. Bacteria, grown on agar plates for 18 h at 37 °C, were diluted to ∼1 × 10^8 CFU/mL in Mueller‐Hinton Broth II (MHB II). Twofold serial dilutions of peptoids in MHB II were inoculated with bacteria to achieve a final concentration of 5 × 10^5 CFU/mL in polypropylene 96 U‐well microtiter plates (Corning 3,897; ThermoFisher Scientific, Roskilde), followed by incubation at 37 °C in ambient air for 18 h. The MIC values were determined as the lowest concentration showing no visible bacterial growth. Experiments were performed twice (in technical triplicates) on 2 different days.

[2] = tested on: Methicillin-resistant S. epidermidis ET-024; assay type: cell-based, Staphylococcus epidermidis; conditions: Methicillin-resistant ET-024, 18 h
Procedure: as §1

[3] = tested on: P. aeruginosa PA01 (H103); assay type: cell-based, Pseudomonas aeruginosa; conditions: H103, 18 h
Procedure: as §1

[4] = tested on: Methicillin-resistant S. aureus USA 300; assay type: cell-based, Staphylococcus aureus; conditions: USA 300, 18 h
Procedure: as §1

S. aureus ATCC 29213 = assay type: cell-based, Staphylococcus aureus; conditions: ATCC 29213, 18 h
Procedure: as §1

S. aureus ATCC 25923 = assay type: cell-based, Staphylococcus aureus; conditions: ATCC 25923, 18 h
Procedure: as §1

E. coli ATCC 25922 = assay type: cell-based, Escherichia coli; conditions: ATCC 25922, 18 h
Procedure: as §1

## NCCCCNCC(=O)N(CC(=O)N(CCCCN)CC(=O)N(CC(=O)N(CCCCN)CC(=O)N(CC(=O)N(CCCCN)CC(=O)N(CC(N)=O)Cc1ccc(F)cc1)Cc1ccccc1)Cc1ccc(F)cc1)Cc1ccccc1 [Compound 15] (H-[Nlys][Nphe][Nlys][N(4-F-Bzl)Gly][Nlys][Nphe][Nlys][N(4-F-Bzl)Gly]-NH2)
[1]
  Minimal inhibitory concentration MRSE^e: 128 µg/mL (≈ 111 µM)
[2]
  Minimal inhibitory concentration MRSE^d: 128 µg/mL (≈ 111 µM)
[3]
  Minimal inhibitory concentration PA^g: 512 µg/mL (≈ 444 µM)
[4]
  Minimal inhibitory concentration MRSA^c: > 512 µg/mL
S. aureus ATCC 29213
  Minimal inhibitory concentration SA^b: > 512 µg/mL
S. aureus ATCC 25923
  Minimal inhibitory concentration SA^a: > 512 µg/mL
E. coli ATCC 25922
  Minimal inhibitory concentration EC^f: 512 µg/mL (≈ 444 µM)

## NCCCCNCC(=O)N(CC(=O)N(CCCCN)CC(=O)N(CC(=O)N(CCCCN)CC(=O)N(CC(=O)N(CCCCN)CC(=O)N(CC(N)=O)Cc1ccc(Cl)cc1)Cc1ccccc1)Cc1ccc(Cl)cc1)Cc1ccccc1 [Compound 16] (H-[Nlys][Nphe][Nlys][Gly(Nα-4-Cl-benzyl)][Nlys][Nphe][Nlys][Gly(Nα-4-Cl-benzyl)]-NH2)
[1]
  Minimal inhibitory concentration MRSE^e: 8 µg/mL (≈ 6.74 µM)
[2]
  Minimal inhibitory concentration MRSE^d: 8 µg/mL (≈ 6.74 µM)
[3]
  Minimal inhibitory concentration PA^g: 512 µg/mL (≈ 431 µM)
[4]
  Minimal inhibitory concentration MRSA^c: 16 µg/mL (≈ 13.5 µM)
S. aureus ATCC 29213
  Minimal inhibitory concentration SA^b: 64 µg/mL (≈ 53.9 µM)
S. aureus ATCC 25923
  Minimal inhibitory concentration SA^a: 16 µg/mL (≈ 13.5 µM)
E. coli ATCC 25922
  Minimal inhibitory concentration EC^f: 256 µg/mL (≈ 216 µM)

## NCCCCNCC(=O)N(CC(=O)N(CCCCN)CC(=O)N(CC(=O)N(CCCCN)CC(=O)N(CC(=O)N(CCCCN)CC(=O)N(CC(N)=O)Cc1ccc(Br)cc1)Cc1ccccc1)Cc1ccc(Br)cc1)Cc1ccccc1 [Compound 17] (H-[Nlys][Nphe][Nlys][N(4-Br-benzyl)Gly][Nlys][Nphe][Nlys][N(4-Br-benzyl)Gly]-NH2)
[1]
  Minimal inhibitory concentration MRSE^e: 4 µg/mL (≈ 3.13 µM)
[2]
  Minimal inhibitory concentration MRSE^d: 4 µg/mL (≈ 3.13 µM)
[3]
  Minimal inhibitory concentration PA^g: 512 µg/mL (≈ 401 µM)
[4]
  Minimal inhibitory concentration MRSA^c: 32 µg/mL (≈ 25.1 µM)
S. aureus ATCC 29213
  Minimal inhibitory concentration SA^b: 32 µg/mL (≈ 25.1 µM)
S. aureus ATCC 25923
  Minimal inhibitory concentration SA^a: 16 µg/mL (≈ 12.5 µM)
E. coli ATCC 25922
  Minimal inhibitory concentration EC^f: 256 µg/mL (≈ 201 µM)

## NCCCCNCC(=O)N(CC(=O)N(CCCCN)CC(=O)N(CC(=O)N(CCCCN)CC(=O)N(CC(=O)N(CCCCN)CC(=O)N(CC(N)=O)Cc1ccc(I)cc1)Cc1ccccc1)Cc1ccc(I)cc1)Cc1ccccc1 [Compound 18] (H-[Nlys][Nphe][Nlys][NBzl(4-I)Gly][Nlys][Nphe][Nlys][NBzl(4-I)Gly]-NH2)
[1]
  Minimal inhibitory concentration MRSE^e: 4 µg/mL (≈ 2.92 µM)
[2]
  Minimal inhibitory concentration MRSE^d: 8 µg/mL (≈ 5.84 µM)
[3]
  Minimal inhibitory concentration PA^g: > 512 µg/mL
[4]
  Minimal inhibitory concentration MRSA^c: 16 µg/mL (≈ 11.7 µM)
S. aureus ATCC 29213
  Minimal inhibitory concentration SA^b: 32 µg/mL (≈ 23.4 µM)
S. aureus ATCC 25923
  Minimal inhibitory concentration SA^a: 32 µg/mL (≈ 23.4 µM)
E. coli ATCC 25922
  Minimal inhibitory concentration EC^f: 256 µg/mL (≈ 187 µM)

## NCCCCNCC(=O)N(CC(=O)N(CCCCN)CC(=O)N(CC(=O)N(CCCCN)CC(=O)N(CC(=O)N(CCCCN)CC(=O)N(CC(=O)N(CCCCN)CC(=O)N(CC(=O)N(CCCCN)CC(=O)N(CC(N)=O)Cc1ccc(F)cc1)Cc1ccc(F)cc1)Cc1ccc(F)cc1)Cc1ccc(F)cc1)Cc1ccc(F)cc1)Cc1ccc(F)cc1 [Compound 29] (H-[Nlys][N(4-F-Bzl)Gly][Nlys][N(4-F-Bzl)Gly][Nlys][N(4-F-Bzl)Gly][Nlys][N(4-F-Bzl)Gly][Nlys][N(4-F-Bzl)Gly][Nlys][N(4-F-Bzl)Gly]-NH2)
[1]
  Minimal inhibitory concentration MRSE^e: 4 µg/mL (≈ 2.25 µM)
[2]
  Minimal inhibitory concentration MRSE^d: 4 to 8 µg/mL
[3]
  Minimal inhibitory concentration PA^g: 64 µg/mL (≈ 36 µM)
[4]
  Minimal inhibitory concentration MRSA^c: 16 µg/mL (≈ 9 µM)
S. aureus ATCC 29213
  Minimal inhibitory concentration SA^b: 32 µg/mL (≈ 18 µM)
S. aureus ATCC 25923
  Minimal inhibitory concentration SA^a: 32 µg/mL (≈ 18 µM)
E. coli ATCC 25922
  Minimal inhibitory concentration EC^f: 256 µg/mL (≈ 144 µM)

## NCCCCNCC(=O)N(CC(=O)N(CCCCN)CC(=O)N(CC(=O)N(CCCCN)CC(=O)N(CC(=O)N(CCCCN)CC(=O)N(CC(=O)N(CCCCN)CC(=O)N(CC(=O)N(CCCCN)CC(=O)N(CC(N)=O)Cc1ccc(Cl)cc1)Cc1ccc(Cl)cc1)Cc1ccc(Cl)cc1)Cc1ccc(Cl)cc1)Cc1ccc(Cl)cc1)Cc1ccc(Cl)cc1 [Compound 30] (H-[Nlys][Gly(Nα-4-Cl-benzyl)][Nlys][Gly(Nα-4-Cl-benzyl)][Nlys][Gly(Nα-4-Cl-benzyl)][Nlys][Gly(Nα-4-Cl-benzyl)][Nlys][Gly(Nα-4-Cl-benzyl)][Nlys][Gly(Nα-4-Cl-benzyl)]-NH2)
[1]
  Minimal inhibitory concentration MRSE^e: 1 µg/mL (≈ 0.533 µM)
[2]
  Minimal inhibitory concentration MRSE^d: 2 µg/mL (≈ 1.07 µM)
[3]
  Minimal inhibitory concentration PA^g: > 512 µg/mL
[4]
  Minimal inhibitory concentration MRSA^c: 2 µg/mL (≈ 1.07 µM)
S. aureus ATCC 29213
  Minimal inhibitory concentration SA^b: 2 µg/mL (≈ 1.07 µM)
S. aureus ATCC 25923
  Minimal inhibitory concentration SA^a: 2 µg/mL (≈ 1.07 µM)
E. coli ATCC 25922
  Minimal inhibitory concentration EC^f: 64 µg/mL (≈ 34.1 µM)

## NCCCCNCC(=O)N(CC(=O)N(CCCCN)CC(=O)N(CC(=O)N(CCCCN)CC(=O)N(CC(=O)N(CCCCN)CC(=O)N(CC(=O)N(CCCCN)CC(=O)N(CC(=O)N(CCCCN)CC(=O)N(CC(N)=O)Cc1ccc(Br)cc1)Cc1ccc(Br)cc1)Cc1ccc(Br)cc1)Cc1ccc(Br)cc1)Cc1ccc(Br)cc1)Cc1ccc(Br)cc1 [Compound 31] (H-[Nlys][N(4-Br-benzyl)Gly][Nlys][N(4-Br-benzyl)Gly][Nlys][N(4-Br-benzyl)Gly][Nlys][N(4-Br-benzyl)Gly][Nlys][N(4-Br-benzyl)Gly][Nlys][N(4-Br-benzyl)Gly]-NH2)
[1]
  Minimal inhibitory concentration MRSE^e: 4 µg/mL (≈ 1.87 µM)
[2]
  Minimal inhibitory concentration MRSE^d: 4 µg/mL (≈ 1.87 µM)
[3]
  Minimal inhibitory concentration PA^g: 256 µg/mL (≈ 119 µM)
[4]
  Minimal inhibitory concentration MRSA^c: 2 µg/mL (≈ 0.933 µM)
S. aureus ATCC 29213
  Minimal inhibitory concentration SA^b: 8 µg/mL (≈ 3.73 µM)
S. aureus ATCC 25923
  Minimal inhibitory concentration SA^a: 4 µg/mL (≈ 1.87 µM)
E. coli ATCC 25922
  Minimal inhibitory concentration EC^f: 64 µg/mL (≈ 29.9 µM)

## NCCCCNCC(=O)N(CC(=O)N(CCCCN)CC(=O)N(CC(=O)N(CCCCN)CC(=O)N(CC(=O)N(CCCCN)CC(=O)N(CC(=O)N(CCCCN)CC(=O)N(CC(=O)N(CCCCN)CC(=O)N(CC(N)=O)Cc1ccc(F)cc1)Cc1ccccc1)Cc1ccc(F)cc1)Cc1ccccc1)Cc1ccc(F)cc1)Cc1ccccc1 [Compound 33] (H-[Nlys][Nphe][Nlys][N(4-F-Bzl)Gly][Nlys][Nphe][Nlys][N(4-F-Bzl)Gly][Nlys][Nphe][Nlys][N(4-F-Bzl)Gly]-NH2)
[1]
  Minimal inhibitory concentration MRSE^e: 4 µg/mL (≈ 2.32 µM)
[2]
  Minimal inhibitory concentration MRSE^d: 16 µg/mL (≈ 9.29 µM)
[3]
  Minimal inhibitory concentration PA^g: 256 µg/mL (≈ 149 µM)
[4]
  Minimal inhibitory concentration MRSA^c: 128 µg/mL (≈ 74.3 µM)
S. aureus ATCC 29213
  Minimal inhibitory concentration SA^b: 256 µg/mL (≈ 149 µM)
S. aureus ATCC 25923
  Minimal inhibitory concentration SA^a: 256 µg/mL (≈ 149 µM)
E. coli ATCC 25922
  Minimal inhibitory concentration EC^f: 256 µg/mL (≈ 149 µM)

## NCCCCNCC(=O)N(CC(=O)N(CCCCN)CC(=O)N(CC(=O)N(CCCCN)CC(=O)N(CC(=O)N(CCCCN)CC(=O)N(CC(=O)N(CCCCN)CC(=O)N(CC(=O)N(CCCCN)CC(=O)N(CC(N)=O)Cc1ccc(Cl)cc1)Cc1ccccc1)Cc1ccc(Cl)cc1)Cc1ccccc1)Cc1ccc(Cl)cc1)Cc1ccccc1 [Compound 34] (H-[Nlys][Nphe][Nlys][Gly(Nα-4-Cl-benzyl)][Nlys][Nphe][Nlys][Gly(Nα-4-Cl-benzyl)][Nlys][Nphe][Nlys][Gly(Nα-4-Cl-benzyl)]-NH2)
[1]
  Minimal inhibitory concentration MRSE^e: 1 µg/mL (≈ 0.564 µM)
[2]
  Minimal inhibitory concentration MRSE^d: 4 µg/mL (≈ 2.26 µM)
[3]
  Minimal inhibitory concentration PA^g: > 512 µg/mL
[4]
  Minimal inhibitory concentration MRSA^c: 8 µg/mL (≈ 4.51 µM)
S. aureus ATCC 29213
  Minimal inhibitory concentration SA^b: 8 µg/mL (≈ 4.51 µM)
S. aureus ATCC 25923
  Minimal inhibitory concentration SA^a: 16 µg/mL (≈ 9.03 µM)
E. coli ATCC 25922
  Minimal inhibitory concentration EC^f: 256 µg/mL (≈ 144 µM)

## NCCCCNCC(=O)N(CC(=O)N(CCCCN)CC(=O)N(CC(=O)N(CCCCN)CC(=O)N(CC(=O)N(CCCCN)CC(=O)N(CC(=O)N(CCCCN)CC(=O)N(CC(=O)N(CCCCN)CC(=O)N(CC(N)=O)Cc1ccc(Br)cc1)Cc1ccccc1)Cc1ccc(Br)cc1)Cc1ccccc1)Cc1ccc(Br)cc1)Cc1ccccc1 [Compound 35] (H-[Nlys][Nphe][Nlys][N(4-Br-benzyl)Gly][Nlys][Nphe][Nlys][N(4-Br-benzyl)Gly][Nlys][Nphe][Nlys][N(4-Br-benzyl)Gly]-NH2)
[1]
  Minimal inhibitory concentration MRSE^e: 1 µg/mL (≈ 0.525 µM)
[2]
  Minimal inhibitory concentration MRSE^d: 8 µg/mL (≈ 4.2 µM)
[3]
  Minimal inhibitory concentration PA^g: > 512 µg/mL
[4]
  Minimal inhibitory concentration MRSA^c: 8 µg/mL (≈ 4.2 µM)
S. aureus ATCC 29213
  Minimal inhibitory concentration SA^b: 8 µg/mL (≈ 4.2 µM)
S. aureus ATCC 25923
  Minimal inhibitory concentration SA^a: 8 µg/mL (≈ 4.2 µM)
E. coli ATCC 25922
  Minimal inhibitory concentration EC^f: 256 µg/mL (≈ 134 µM)
